Reference: US20240197709A1, “POTENTIATING THE TUMOR-SELECTIVE EFFECTS OF NQO1-BIOACTIVATABLE AGENT BY USE OF CMET INHIBITOR” (The Trustees of Indiana University, priority 2022, published 2024)

System: Capan2 PDAC shMET cells
Experiment: transwell migration and invasion, Capan2 shSCR vs shMET
Type: cell-based
Conditions: β-lap 2 μM 2 h, versus shSCR control
Experimental: FIG. 4-1D. Representative images from in vitro transwell migration assay comparing Capan2 shSCR and Capan2 shMET treated with vehicle control or sub-lethal β-lap (2 μM, 2 h). Images were taken at 16 h post-treatment.
FIG. 4-1E. Bar graph illustrating the percentage of Capan2 shSCR vs shMET PDAC cell migration at 16 h post-treatment with vehicle or sub-lethal β-lap (2 μM, 2 h). Two-way ANOVA was used for statistical analyses; * p<0.05; **** p<0.0001.
FIG. 4-1F. Representative images from in vitro transwell invasion assay comparing Capan2 shSCR and Capan-2 shMET treated with vehicle control or sub-lethal β-lap (2 μM, 2 h). Images were taken at 16 h post-treatment.
FIG. 4-1G. Bar graph illustrating the percentage of Capan2 shSCR vs shMET PDAC cell invasion at 16 h post-treatment with vehicle or sub-lethal β-lap (2 μM, 2 h). Two-way ANOVA was used for statistical analyses; * p<0.05; **** p<0.0001.
Overexpression of cMET in many cancers, including NSCLC and PDAC, is known to enhance cancer cell mobility, migration, and invasion (Spina, et al., Biomedicines 2015, 3(1), 71-88). […]

CC1(C)CCC2=C(O1)c1ccccc1C(=O)C2=O [β-lap, β-Lapachone]
cell invasion: significantly reduced | cell migration: significantly reduced
